Experiments:
human integrin α4 mRNA = experiment: Integrin α4 mRNA levels in A375 melanoma cells by real-time quantitative PCR; format: cell-based; settings: 24 hours, electroporation
Protocol: Quantitation of integrin α4 mRNA levels was performed by real-time quantitative PCR using the ABI PRISM™ 7700 Sequence Detection System (PE-Applied Biosystems, Foster City, Calif.) according to manufacturer's instructions. This is a closed-tube, non-gel-based, fluorescence detection system which allows high-throughput quantitation of polymerase chain reaction (PCR) products in real-time. As opposed to standard PCR, in which amplification products are quantitated after the PCR is completed, products in real-time quantitative PCR are quantitated as they accumulate. This is accomplished by including in the PCR reaction an oligonucleotide probe that anneals specifically between the forward and reverse PCR primers, and contains two fluorescent dyes. A reporter dye (e.g., JOE or FAM, obtained from either Operon Technologies Inc., Alameda, Calif. or PE-Applied Biosystems, Foster City, Calif.) is attached to the 5' end of the probe and a quencher dye (e.g., TAMRA, obtained from either Operon Technologies Inc., Alameda, Calif. or PE-Applied Biosystems, Foster City, Calif.) is attached to the 3' end of the probe. When the probe and dyes are intact, reporter dye emission is quenched by the proximity of the 3' quencher dye. During amplification, annealing of the probe to the target sequence creates a substrate that can be cleaved by the 5'-exonuclease activity of Taq polymerase. […] With each cycle, additional reporter dye molecules are cleaved from their respective probes, and the fluorescence intensity is monitored at regular intervals by laser optics built into the ABI PRISM™ 7700 Sequence Detection System. In each assay, a series of parallel reactions containing serial dilutions of mRNA from untreated control samples generates a standard curve that is used to quantitate the percent inhibition after antisense oligonucleotide treatment of test samples.
PCR reagents were obtained from PE-Applied Biosystems, Foster City, Calif. RT-PCR reactions were carried out by adding 20 μL PCR cocktail (1×TAQMANT buffer A, 5.5 mM MgCl2, 300 μM each of dATP, dCTP and dGTP, 600 μM of dUTP, 400 nM each of forward primer and reverse primer (or 100 nM in the case of G3PDH), 100 nM probe, 20 Units RNAse inhibitor, 1.25 Units AMPLITAQ GOLD™, and 12.5 Units MuLV reverse transcriptase) to 5 μL (100 ng) total mRNA solution, purified using the RNEasy™ kit (Qiagen, Valencia Calif.). The RT reaction was carried out by incubation for 30 minutes at 48° C. Following a 10 minute incubation at 95° C. to activate the AMPLITAQ GOLD™, 40 cycles of a two-step PCR protocol were carried out: 95° C. for 15 seconds (denaturation) followed by 60° C. for 1.5 minutes (annealing/extension). Integrin α4 probes and primers were designed to hybridize to the human integrin α4 sequence, using published sequence information (GenBank accession number L12002), incorporated herein as SEQ ID NO:1).
For integrin α4 the PCR primers were: forward primer: GACACGCTGCGCCTCAT (SEQ ID NO: 94, hybridizes at position 319-335 of Genbank accession no. L12002) reverse primer: […] (SEQ ID NO: 95, hybridizes at position 391-412 of Genbank accession no. L12002) and the PCR probe was: FAM-[…]-TAMRA (probe is SEQ ID NO: 96; hybridizes at position 361-382 of Genbank accession no. L12002) where FAM (PE-Applied Biosystems, Foster City, Calif.) is the fluorescent reporter dye) and TAMRA (PE-Applied Biosystems, Foster City, Calif.) is the quencher dye. […]

integrin α4 = experiment: Inhibition of integrin α4 protein expression in Jurkat T-lymphocyte cells; format: cell-based, human
Protocol: ISIS 107248 was tested at doses of 1, 3, 10, 20 and 30 μM for ability to inhibit integrin α4 expression in Jurkat T-lymphocyte cells according to the previous examples. Integrin α4 protein expression was reduced by approximately 65-72% at oligonucleotide doses of 3-30 μM at 24 hours after oligonucleotide treatment. At 48 hours after treatment, integrin α4 protein expression was reduced by 60% at 3 μM and by 90% at 10, 20 and 30 μM oligonucleotide concentration.

107248 (antisense CTGAGTCTGTTTTCCATTCT; chemistry not given here) [compound 107248]
reduction of integrin α4 mRNA levels compared to control (human integrin α4 mRNA; 0.3 μM): approximately 23%
reduction of integrin α4 mRNA levels compared to control (human integrin α4 mRNA; 1 μM): ~38%
reduction of integrin α4 mRNA levels compared to control (human integrin α4 mRNA; 3 μM): ~70%
reduction of integrin α4 mRNA levels compared to control (human integrin α4 mRNA; 10 μM): ~80%
reduction of integrin α4 mRNA levels compared to control (human integrin α4 mRNA; 30 μM): ~85%
reduction of integrin α4 protein expression (integrin α4; 3 μM, 48 hours): 60%
reduction of integrin α4 protein expression (integrin α4; 10 μM, 48 hours): 90%
reduction of integrin α4 protein expression (integrin α4; 20 μM, 48 hours): 90%
reduction of integrin α4 protein expression (integrin α4; 30 μM, 48 hours): 90%
reduction of integrin α4 protein expression (integrin α4; 3-30 μM, 24 hours): 65-72%
